# The Bradley open melting point set (2014)
row,melting point [°C],SMILES
1,130,"O=C(CCc1ccccc1)/C(=N/O)c1ccccc1 [(1E)-1,4-diphenylbutane-1,2-dione 1-oxime]"
2,126,"CC(=O)O/C(=C\C=C(\OC(C)=O)c1ccccc1)c1ccccc1 [(1E,3Z)-4-(acetyloxy)-1,4-diphenylbuta-1,3-dien-1-yl acetate]"
3,122,Nc1ccccc1C(O)(c1ccccc1)c1ccccc1 [(2-aminophenyl)(diphenyl)methanol]
4,100,O=C(/C=C/c1ccc(-c2ccccc2)o1)c1ccco1 [(2E)-1-(2-furyl)-3-(5-phenyl-2-furyl)prop-2-en-1-one]
5,173,"O=C(O)/C(=C/c1ccccc1)c1ccccc1 [(2E)-2,3-Diphenylacrylic acid]"
6,154,"O/N=C(\c1ccccc1)C(O)c1ccccc1 (centres undefined) [(2E)-2-(Hydroxyimino)-1,2-diphenylethanol]"
7,147,O=C(/C=C/c1ccc(-c2cccc([N+](=O)[O-])c2)o1)c1ccccc1 [(2E)-3-[5-(3-Nitrophenyl)-2-furyl]-1-phenylprop-2-en-1-one]
8,129,O=C(/C=C/c1ccc(-c2ccc(Br)cc2)o1)c1ccccc1 [(2E)-3-[5-(4-Bromophenyl)-2-furyl]-1-phenylprop-2-en-1-one]
9,57,Cc1ccc(C(=O)c2ccccc2)cc1 [(4-Methylphenyl)(phenyl)methanone]
10,212,O=C(O)/C(=C/c1ccccc1[N+](=O)[O-])c1ccccc1F [(E)-2-(2-Fluorophenyl)-3-(2-nitrophenyl)propenoic acid]
11,228,O=C(O)/C(=C/c1ccccc1)c1ccc([N+](=O)[O-])cc1 [(E)-2-(4-nitrophenyl)-3-phenylpropenoic acid]
12,149,Cc1ccccc1/C=C(\C#N)c1nc2ccccc2s1 [(E)-2-Benzothiazol-2-yl-3-o-tolyl-acrylonitrile]
13,185,O=C(O)/C(=C/c1cccc([N+](=O)[O-])c1)c1ccccc1 [(E)-2-phenyl-3-(3-nitrophenyl)propenoic acid]
14,216,O=C(O)/C(=C/c1ccc([N+](=O)[O-])cc1)c1ccccc1 [(E)-2-phenyl-3-(4-nitrophenyl)propenoic acid]
15,37.5,O=C(c1ccccc1)c1c(F)c(F)c(F)c(F)c1F [(Pentafluorophenyl)(phenyl)methanone]
16,62,O=C(O)CSCc1ccccc1 [(benzylthio)acetic acid]
17,81,C/C(=C\c1ccccc1)c1ccccc1 [(e)-alpha-methylstilbene]
18,170,CC(=O)Nc1ccc(O)cc1 [Acetaminophen]
19,114,CC(=O)Nc1ccccc1 [Acetanilide]
20,135,CC(=O)Oc1ccccc1C(=O)O [Acetylsalicylic acid]
21,120,Oc1ccc(OCc2ccccc2)cc1 [Agerite]
22,-37,COc1ccccc1 [Anisole]
23,156,O=C1c2ccccc2Cc2ccccc21 [Anthracen-9(10H)-one]
24,102,"Nc1ccccc1N [Benzene-1,2-diamine]"
25,43.5,O=S(=O)(O)c1ccccc1 [Benzenesulfonic acid]
26,122,O=C(O)c1ccccc1 [Benzoic acid]
27,137,O=C(c1ccccc1)C(O)c1ccccc1 (centres undefined) [Benzoin]

# Continued, compound first:
row,SMILES,melting point [°C]
1,"O=C(O)[C@@H]1[C@@H]2CC[C@@H](C2)[C@@H]1C(=O)O [(1R,2R,3S,4S)-Bicyclo[2.2.1]heptane-2,3-dicarboxylic acid]",160
2,"CC(C)/C=N/Nc1ccc([N+](=O)[O-])cc1[N+](=O)[O-] [(2E)-1-(2,4-Dinitrophenyl)-2-(2-methylpropylidene)hydrazine]",186
3,C/C(=C\C(=O)O)c1ccc(C)cc1 [(2E)-3-(4-methylphenyl)but-2-enoic acid],135
4,O=C(/C=C/c1ccc(Br)o1)c1ccco1 [(2E)-3-(5-bromofuran-2-yl)-1-furan-2-ylprop-2-en-1-one],77
5,CN(C)c1ccc(/C=C/C=O)cc1 [(2E)-3-[4-(Dimethylamino)phenyl]acrylaldehyde],135
6,"C/C(=C\C=C\c1ccccc1)C(=O)OC(=O)/C(C)=C/C=C/c1ccccc1 [(2E,4E)-2-methyl-5-phenylpenta-2,4-dienoic anhydride]",113
7,"O=C(O)[C@H](O)[C@@H](O)C(=O)O [(2R,3R)-2,3-Dihydroxysuccinic acid]",171
8,"O=C(O)[C@@H](O)[C@H](O)C(=O)O [(2S,3S)-2,3-Dihydroxysuccinic acid]",173
9,"COC1=C(OC)/C(=C/C=O)OC1=O [(2Z)-(3,4-dimethoxy-5-oxofuran-2(5H)-ylidene)ethanal]",61
10,O=C(O)/C=C\C(=O)O [(2Z)-But-2-enedioic acid],138
11,CC(=O)/C(C)=N\O [(3Z)-3-(Hydroxyimino)butan-2-one],75
12,CC(C)CCC[C@@H](C)[C@H]1CC[C@H]2[C@@H]3CC=C4C[C@@H](O)CC[C@]4(C)[C@H]3CC[C@]12C [(3beta)-Cholest-5-en-3-ol],149
13,BrCCCCOc1ccccc1 [(4-bromobutoxy)benzene],42
14,N#CCc1c[nH]cn1 [(4-imidazolyl)acetonitrile],137
15,"O=C(O)CSc1nnc(S)s1 [(5-mercapto-1,3,4-thiadiazol-2-ylthio)acetic acid]",167
16,"CC(=O)O[C@]1(C(C)=O)CC[C@H]2[C@@H]3C[C@H](C)C4=CC(=O)CC[C@]4(C)[C@H]3CC[C@@]21C [(6alpha)-6-Methyl-3,20-dioxopregn-4-en-17-yl acetate]",208
17,C=C[C@H]1C[N@@]2CC[C@H]1C[C@@H]2[C@@H](O)c1ccnc2ccccc12 [(9S)-Cinchonan-9-ol],265
18,CCCCCCCC/C=C\CCCCCCCCCCCC(N)=O [(13Z)-Docos-13-enamide],79
19,CC12CCC3C(CCC4CC(CC(=O)O)=CCC43C)C1CCC2=O (centres undefined) [(17-oxoandrost-2-en-3-yl)acetic acid],177
20,C[C@]12CC[C@H]3[C@@H](CCC4=CC(=O)CC[C@@]43C)[C@@H]1CC[C@@H]2O [(17beta)-17-Hydroxyandrost-4-en-3-one],155
21,CCCCCOc1ccc(/N=N/c2ccc(CCCC)cc2)cc1 [(E)-1-(4-butylphenyl)-2-[4-(pentyloxy)phenyl]diazene],42
22,CC(C)(C)OC(=O)N1CCC[C@H](O)C1 [(S)-1-boc-3-hydroxypiperidine],37
23,[2H]C([2H])=C(C(=O)OC([2H])([2H])[2H])C([2H])([2H])[2H] [(~2~H_3_)Methyl 2-(~2~H_3_)methyl(~2~H_2_)prop-2-enoate],-48
24,[2H]c1c([2H])c([2H])c2c([2H])c([2H])c([2H])c([2H])c2c1[2H] [(~2~H_8_)Naphthalene],82
25,[2H]c1c([2H])c2c([2H])c([2H])c3c([2H])c([2H])c([2H])c4c([2H])c([2H])c(c1[2H])c2c34 [(~2~H_10_)Pyrene],156
26,"[2H]c1c([2H])c([2H])c(-c2c([2H])c([2H])c(-c3c([2H])c([2H])c([2H])c([2H])c3[2H])c([2H])c2[2H])c([2H])c1[2H] [(~2~H_14_)-1,1':4',1''-Terphenyl]",213

row,SMILES,melting point [°C]
1,CCCC(=O)Nc1ccc(OCC(O)CNC(C)C)c(C(C)=O)c1 (centres undefined) [Acebutolol],121
2,CC=O [Acetaldehyde],-124
3,CC(=O)OC(C)=O [Acetic anhydride],-73
4,CC1(C)C=C(C(=O)O)C1 [Acid 9 (No name)],70
5,C=CC=O [Acrylaldehyde],-87
6,CC(N)C(=O)O (centres undefined) [Alanine],264
7,C[C@]12CCC(=O)C=C1CC[C@@H]1[C@@H]2[C@@H](O)C[C@]2(C=O)[C@@H](C(=O)CO)CC[C@@H]12 [Aldosterone],166
8,CC=1CCCC(C)(C)C=1/C=CC(C)=CC=CC(C)=CC(=O)O [Alitretinoin],190
9,NCC[C@H](O)C(=O)N[C@@H]1C[C@H](N)[C@@H](O[C@H]2O[C@H](CN)[C@@H](O)[C@H](O)[C@H]2O)[C@H](O)[C@H]1O[C@H]1O[C@H](CO)[C@@H](O)[C@H](N)[C@H]1O [Amikacin],204
10,NC1=NCC(c2ccccc2)O1 (centres undefined) [Aminorex],137
11,C[C@@H]1[C@H](O)[C@@H](C)C=CC=CC=CC=CC=CC=CC=C[C@H](O[C@@H]2O[C@H](C)[C@@H](O)[C@H](N)[C@@H]2O)C[C@@H]2O[C@](O)(C[C@@H](O)C[C@@H](O)[C@H](O)CC[C@@H](O)C[C@@H](O)CC(=O)O[C@H]1C)C[C@H](O)[C@H]2C(=O)O [Amphotericin B],170
12,C=CCC1(CC(C)C)C(=O)NC(=O)NC1=O [BUTALBITAL],138
13,CCC1(CC)C(=O)NC(=O)NC1=O [Barbital],190
14,"O=[N+]([O-])c1ccc(C=NO)cc1 [Benzaldehyde, 4-nitro-, oxime]",130
15,"N#Cc1cc(C#N)c(C#N)cc1C#N [Benzene-1,2,4,5-tetracarbonitrile]",265
16,"Nc1ccc(N)cc1 [Benzene-1,4-diamine]",140
17,c1ccc2c(c1)cc1ccc3cccc4ccc2c1c34 [Benzo[pqr]tetraphene],176
18,"CCOC(=O)c1ccc(N)cc1 [Benzocaine, Ethyl 4-aminobenzoate]",90
19,O=C(Cl)c1ccccc1 [Benzoyl chloride],-1
20,C[C@H]1C[C@H]2[C@@H]3CCC4=CC(=O)C=C[C@]4(C)[C@@]3(F)[C@@H](O)C[C@]2(C)[C@@]1(O)C(=O)CO [Betamethasone],232
21,Nc1ccccc1-c1ccccc1 [Biphenyl-2-amine],51.5
22,"Nc1ccc(-c2ccc(N)cc2)cc1 [Biphenyl-4,4'-diamine]",128
23,Oc1ccc(-c2ccccc2)cc1 [Biphenyl-4-ol],167
24,"Clc1cc2c(cc1Cl)-c1cc(Cl)c(Cl)cc1-2 [Biphenylene, 2,3,6,7-tetrachloro-]",239
25,CC(C)CCCCCCCOC(=O)c1ccccc1C(=O)OCCCCCCCC(C)C [Bis(8-methylnonyl) phthalate],-50
26,BrBr [Bromine],-7.2
